# Earlier results as cited in US4127528A, “Novel derivatives of alpha-endorphin, intermediates therefor and compositions and methods employing said derivatives” (priority 1977, dated 1978).
# Legend:
# [1] = system: brain opiate receptor sites; settings: natural peptide
# [2] = system: opiate activity
# [3] = system: rat; settings: injected directly into the brain of the rat
substance,measurement,setting,value
H-Tyr-Gly-Gly-Phe-Met-OH [methionine enkephalin],binding to partially purified brain opiate receptor sites,[1],binds stereo-specifically
same,activity in bioassays for opiate activity,[2],very active
same,analgesic activity,[3],only weak analgesic activity of short duration
